The results in this text go back to US20240158408A1, “Nitrogen-Containing Heterocyclic Compound, Pharmaceutical Compositions thereof and Use thereof” (280 Bio, Inc., priority 2022, published 2024).

Where only a bound is given, the exact number is not on record here.

The target of the test is PI3Kα (Homo sapiens (Human), UniProt P42336). Put plainly: ADP-Glo Kinase Assay, PI3Kα enzyme activity inhibition. Particulars: ATP 25 μM, PIP2 50 μg/mL, 1 hour at room temperature; for IC50: PI3Kaα IC50, ADP-Glo; for PI3Kaα IC50: ADP-Glo. For orientation: ADP-Glo first removes unused ATP, then detects ADP through luciferase.
Chain of PI3Kα (P42336 whole entry): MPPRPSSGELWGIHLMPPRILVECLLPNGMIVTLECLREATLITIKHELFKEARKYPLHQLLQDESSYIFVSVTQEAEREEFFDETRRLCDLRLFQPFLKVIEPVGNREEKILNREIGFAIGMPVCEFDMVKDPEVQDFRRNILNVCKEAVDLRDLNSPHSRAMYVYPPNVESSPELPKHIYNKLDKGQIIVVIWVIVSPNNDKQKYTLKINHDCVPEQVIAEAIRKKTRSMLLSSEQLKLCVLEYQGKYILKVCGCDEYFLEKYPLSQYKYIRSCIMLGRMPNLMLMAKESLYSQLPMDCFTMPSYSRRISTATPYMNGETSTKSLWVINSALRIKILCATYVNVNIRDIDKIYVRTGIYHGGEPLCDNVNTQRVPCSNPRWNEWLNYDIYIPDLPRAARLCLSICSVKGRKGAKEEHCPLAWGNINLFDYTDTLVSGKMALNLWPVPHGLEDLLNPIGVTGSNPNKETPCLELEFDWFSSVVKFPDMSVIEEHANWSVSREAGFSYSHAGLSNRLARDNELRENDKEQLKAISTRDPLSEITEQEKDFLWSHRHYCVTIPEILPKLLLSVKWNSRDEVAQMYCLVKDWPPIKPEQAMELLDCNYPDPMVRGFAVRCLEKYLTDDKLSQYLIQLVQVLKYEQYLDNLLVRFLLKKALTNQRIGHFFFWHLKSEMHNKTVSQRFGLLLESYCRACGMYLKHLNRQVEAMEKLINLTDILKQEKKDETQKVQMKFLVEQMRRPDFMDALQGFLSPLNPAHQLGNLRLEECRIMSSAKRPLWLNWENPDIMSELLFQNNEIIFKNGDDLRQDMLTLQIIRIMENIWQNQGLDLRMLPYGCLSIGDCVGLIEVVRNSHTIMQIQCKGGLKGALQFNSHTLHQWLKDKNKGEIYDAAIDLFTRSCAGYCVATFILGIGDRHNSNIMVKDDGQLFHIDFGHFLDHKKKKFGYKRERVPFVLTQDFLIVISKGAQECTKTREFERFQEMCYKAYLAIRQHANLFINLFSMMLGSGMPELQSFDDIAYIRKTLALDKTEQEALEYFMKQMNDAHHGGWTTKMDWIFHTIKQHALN
Chain of PI3Kα (P27986 whole entry partner): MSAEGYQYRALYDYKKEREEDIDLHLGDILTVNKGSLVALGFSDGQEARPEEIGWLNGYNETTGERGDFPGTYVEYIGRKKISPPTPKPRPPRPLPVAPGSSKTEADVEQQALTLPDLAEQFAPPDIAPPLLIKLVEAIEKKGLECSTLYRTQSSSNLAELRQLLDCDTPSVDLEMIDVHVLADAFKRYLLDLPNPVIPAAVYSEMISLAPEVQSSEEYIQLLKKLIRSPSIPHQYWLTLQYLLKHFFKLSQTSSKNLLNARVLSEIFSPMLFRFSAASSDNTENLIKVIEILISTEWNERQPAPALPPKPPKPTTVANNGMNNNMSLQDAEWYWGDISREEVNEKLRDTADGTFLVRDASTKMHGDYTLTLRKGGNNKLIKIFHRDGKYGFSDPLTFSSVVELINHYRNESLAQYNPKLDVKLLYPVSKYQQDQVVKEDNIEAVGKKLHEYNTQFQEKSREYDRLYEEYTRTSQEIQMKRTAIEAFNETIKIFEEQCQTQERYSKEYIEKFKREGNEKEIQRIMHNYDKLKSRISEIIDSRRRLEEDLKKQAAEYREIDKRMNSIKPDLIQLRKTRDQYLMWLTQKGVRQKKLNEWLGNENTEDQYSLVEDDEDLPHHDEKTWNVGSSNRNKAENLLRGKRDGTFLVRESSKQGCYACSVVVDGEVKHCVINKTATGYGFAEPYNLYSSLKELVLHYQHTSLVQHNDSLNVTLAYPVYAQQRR

Protocol: The ADP-Glo Kinase Assay Kit was used for the experiments. The following buffer solutions were prepared: 50 mM HEPES, pH 7.5, 3 mM MgCl2, 1 mM EGTA, 100 mM NaCl, 0.03% CHAPS, 2 mM DTT. The tested compound samples were dissolved in DMSO and added to the screening system at a certain starting concentration of, for example, 10 μM, diluted 3-fold, while setting a DMSO control and an unkinase control. […] The reaction system was reacted at room temperature for 1 hour, then terminated by adding a terminal reagent (ADP-Glo reagent, 5 μL), and the ADP content in the system was detected using a detection reagent (Kinase Detection Reagent, 10 μL). Signal data was collected using the Envision instrument. Calculated the % inhibition according to the following formula: % inhibition=(DMSO control signal value−sample signal value)! (DMSO control signal value −unkinase control signal value).

The compound `O=C(Nc1cc(Br)c2c3c1C(c1cc(F)ccc1Cl)NC(=O)N3CC2)c1cc(F)cc(C(F)(F)F)c1` (single isomer, unassigned) [YL079-P1] came in with a concentration for half-maximal inhibition (IC50) above 10 µM. Turning to `O=C(Nc1cc(Br)c2c3c1C(c1cc(F)ccc1Cl)NC(=O)N3CC2)c1cc(F)cc(C(F)(F)F)c1` (single isomer, unassigned) [YL079-P2], the 50% inhibitory concentration (IC50) lay in the range of 0.25 to 10 µM. Consider `N#Cc1cc(NC(=O)c2cc(F)cc(C(F)(F)F)c2)c2c3c1CCN3C(=O)NC2c1cc(Cl)ccc1Cl` (single isomer, unassigned) [YL101-P1], for which the half-inhibitory concentration (IC50) was above 10 µM. For the compound `N#Cc1cc(NC(=O)c2cc(F)cc(C(F)(F)F)c2)c2c3c1CCN3C(=O)NC2c1cc(Cl)ccc1Cl` (single isomer, unassigned) [YL101-P2], the “PI3Kaα IC50” value was “+++ (+++ represents IC50>10 μM)”. With `Cn1nc2c(C#N)cc(NC(=O)c3cc(F)cc(C(F)(F)F)c3)c3c2c1C(=O)NC3c1cc(F)ccc1Cl` (single isomer, unassigned) [YL102-P2], the half-inhibitory concentration (IC50) is above 10 µM. Consider `N#Cc1c(-c2cc(NC(=O)c3cc(F)cc(C(F)(F)F)c3)c3c4c2CCN4C(=O)NC3c2cc(F)ccc2Cl)ccc2ncnn12` (single isomer, unassigned) [YL108-P2], for which the concentration for half-maximal inhibition (IC50) was above 10 µM.

For `N#Cc1c(-c2cc(NC(=O)c3cc(F)cc(C(F)(F)F)c3)c3c4c2CCN4C(=O)NC3c2cc(Cl)ccc2Cl)ccc2ncnn12` (single isomer, unassigned) [YL109-P2], the IC50 is above 10 µM. Still for that read-out and setting: the same measure for `Cn1nc2c(C#N)cc(NC(=O)c3cc(F)cc(C(F)(F)F)c3)c3c2c1C(=O)NC3c1cc(Cl)ccc1Cl` (single isomer, unassigned) [YL111-P2]: above 10 µM. As to `Cc1ccccc1C1NC(=O)c2cccc3ccc(NC(=O)c4csc5ccccc45)c1c23` (stereo not shown) [YL004], the “PI3Kaα IC50” value is “+++ (+++ represents IC50>10 μM)”.

In the case of `O=C(Nc1cc(NC(=O)C(F)(F)F)c2c3c1C(c1cc(F)ccc1Cl)NC(=O)N3CC2)c1cc(F)cc(C(F)(F)F)c1` (stereo not shown) [YL009], the “PI3Kaα IC50” value is “++ (++ represents 250 nM<IC50<=10 μM)”. Consider `[N-]=[N+]=Nc1cc(NC(=O)c2cc(F)cc(C(F)(F)F)c2)c2c3c1CCN3C(=O)NC2c1cc(F)ccc1Cl` (stereo not shown) [YL011], for which the “PI3Kaα IC50” value is “++ (++ represents 250 nM<IC50<=10 μM)”. For the compound `O=C(Nc1cc(N2CC(F)(F)C2)c2c3c1C(c1cc(F)ccc1Cl)NC(=O)N3CC2)c1cc(F)cc(C(F)(F)F)c1` (stereo not shown) [YL012], the “PI3Kaα IC50” value is on record as “++ (++ represents 250 nM<IC50<=10 μM)”. On the same count and under the same terms, the same measure for `Nc1n[nH]c2ccc(-c3cc(NC(=O)c4cc(F)cc(C(F)(F)F)c4)c4c5c3CCN5C(=O)NC4c3cc(F)ccc3Cl)cc12` (stereo not shown) [YL013]: “++ (++ represents 250 nM<IC50<=10 μM)”; for `Cn1nc(C(F)(F)F)cc1-c1cc(NC(=O)c2cc(F)cc(C(F)(F)F)c2)c2c3c1CCN3C(=O)NC2c1cc(F)ccc1Cl` (stereo not shown) [YL014]: “++ (++ represents 250 nM<IC50<=10 μM)”; for `Cn1cc(-c2cc(NC(=O)c3cc(F)cc(C(F)(F)F)c3)c3c4c2CCN4C(=O)NC3c2cc(F)ccc2Cl)cn1` (stereo not shown) [YL015]: “++ (++ represents 250 nM<IC50<=10 μM)”.

Consider `O=C(Nc1cc(-c2cnoc2)c2c3c1C(c1cc(F)ccc1Cl)NC(=O)N3CC2)c1cc(F)cc(C(F)(F)F)c1` (stereo not shown) [YL018], for which the “PI3Kaα IC50” value is reported as “++ (++ represents 250 nM<IC50<=10 μM)”.

Consider `O=C(Nc1cc(B(O)O)c2c3c1C(c1cc(F)ccc1Cl)NC(=O)N3CC2)c1cc(F)cc(C(F)(F)F)c1` (stereo not shown) [YL019], for which the “PI3Kaα IC50” value is “++ (++ represents 250 nM<IC50<=10 μM)”. Take `Cc1cc(NC(=O)c2cc(F)cc(C(F)(F)F)c2)c2c3c1CCN3C(=O)NC2c1cc(F)ccc1Cl` (stereo not shown) [YL020]: the “PI3Kaα IC50” value was “+++ (+++ represents IC50>10 μM)”. `O=C(Nc1cc(F)c2c3c1C(c1cc(F)ccc1Cl)NC(=O)N3CC2)c1cc(F)cc(C(F)(F)F)c1` (stereo not shown) [YL021]: the “PI3Kaα IC50” value is “++ (++ represents 250 nM<IC50<=10 μM)”.

Take `O=C(Nc1cc(NC2CC2)c2c3c1C(c1cc(F)ccc1Cl)NC(=O)N3CC2)c1cc(F)cc(C(F)(F)F)c1` (stereo not shown) [YL022]: the “PI3Kaα IC50” value is “++ (++ represents 250 nM<IC50<=10 μM)”. The same measure, in the same setting: the same measure for `O=C(Nc1cc(Nc2cnn(C3CCOCC3)c2)c2c3c1C(c1cc(F)ccc1Cl)NC(=O)N3CC2)c1cc(F)cc(C(F)(F)F)c1` (stereo not shown) [YL023]: “++ (++ represents 250 nM<IC50<=10 μM)”. Still for that read-out and setting: in the case of `O=C(Nc1cc(NC2COC2)c2c3c1C(c1cc(F)ccc1Cl)NC(=O)N3CC2)c1cc(F)cc(C(F)(F)F)c1` (stereo not shown) [YL027] it was “++ (++ represents 250 nM<IC50<=10 μM)”. Turning to `O=C(Nc1cc(NC2CCOCC2)c2c3c1C(c1cc(F)ccc1Cl)NC(=O)N3CC2)c1cc(F)cc(C(F)(F)F)c1` (stereo not shown) [YL028], the “PI3Kaα IC50” value is recorded as “++ (++ represents 250 nM<IC50<=10 μM)”. Regarding `C[C@H](O)C(=O)Nc1cc(NC(=O)c2cc(F)cc(C(F)(F)F)c2)c2c3c1CCN3C(=O)NC2c1cc(F)ccc1Cl` (stereo partly shown) [YL030], the “PI3Kaα IC50” value is on record as “+++ (+++ represents IC50>10 μM)”. With `C[C@@H](O)C(=O)Nc1cc(NC(=O)c2cc(F)cc(C(F)(F)F)c2)c2c3c1CCN3C(=O)NC2c1cc(F)ccc1Cl` (stereo partly shown) [YL031], the “PI3Kaα IC50” value is reported as “+++ (+++ represents IC50>10 μM)”. As to `O=C1NC(c2cc(F)ccc2Cl)c2c(-c3nc4c(F)cc(C(F)(F)F)cc4[nH]3)ccc3c2N1CC3` (stereo not shown) [YL032], the “PI3Kaα IC50” value is on record as “++ (++ represents 250 nM<IC50<=10 μM)”. `O=C(Nc1cc(-c2c[nH]c3ncc(C(F)(F)F)cc23)c2c3c1C(c1cc(F)ccc1Cl)NC(=O)N3CC2)c1cc(F)cc(C(F)(F)F)c1` (stereo not shown) [YL036]: the “PI3Kaα IC50” value is given as “++ (++ represents 250 nM<IC50<=10 μM)”. As for `O=C1NC(c2cc(F)ccc2Cl)c2c(Nc3nccc4c(C(F)(F)F)cc(F)cc34)cc(Br)c3c2N1CC3` (stereo not shown) [YL042], the “PI3Kaα IC50” value was “++ (++ represents 250 nM<IC50<=10 μM)”. Still for that read-out and setting: in the case of `Nc1cc(-c2cc(Nc3nccc4c(C(F)(F)F)cc(F)cc34)c3c4c2CCN4C(=O)NC3c2cc(F)ccc2Cl)n[nH]1` (stereo not shown) [YL044] it was “++ (++ represents 250 nM<IC50<=10 μM)”. Turning to `O=C1NC(c2cc(F)ccc2Cl)c2c(Nc3nccc4c(C(F)(F)F)cc(F)cc34)cc(F)c3c2N1CC3` (stereo not shown) [YL045], the “PI3Kaα IC50” value is “+++ (+++ represents IC50>10 μM)”. For the compound `O=C(Nc1cc(-c2c(C(F)(F)F)n[nH]c2C2CC2)c2c3c1C(c1cc(F)ccc1Cl)NC(=O)N3CC2)c1cc(F)cc(C(F)(F)F)c1` (stereo not shown) [YL048], the “PI3Kaα IC50” value was “++ (++ represents 250 nM<IC50<=10 μM)”. Same read-out and setting: in the case of `O=C(Nc1cc(-c2c(C(F)(F)F)n[nH]c2-c2ccccc2)c2c3c1C(c1cc(F)ccc1Cl)NC(=O)N3CC2)c1cc(F)cc(C(F)(F)F)c1` (stereo not shown) [YL049] it was “+++ (+++ represents IC50>10 μM)”.

On to `O=C1NC(c2cc(F)ccc2Cl)c2c(Nc3nccc4c(C(F)(F)F)cc(F)cc34)ccc3c2N1CC3` (stereo not shown) [YL050], for which the “PI3Kaα IC50” value is on record as “++ (++ represents 250 nM<IC50<=10 μM)”. On the same count and under the same terms, the same measure for `O=C1NC(c2cc(F)ccc2Cl)c2c(Nc3ncnc4c(Cl)cc(F)cc34)ccc3c2N1CC3` (stereo not shown) [YL052]: “+++ (+++ represents IC50>10 μM)”; for `Nc1cc(-c2cc(NC(=O)c3cc(F)cc(C(F)(F)F)c3)c3c4c2CCN4C(=O)NC3c2cc(F)ccc2Cl)[nH]n1` (stereo not shown) [YL053]: “++ (++ represents 250 nM<IC50<=10 μM)”; for `O=C(Nc1cc(-c2ccn[nH]2)c2c3c1C(c1cc(F)ccc1Cl)NC(=O)N3CC2)c1cc(F)cc(C(F)(F)F)c1` (stereo not shown) [YL054]: “++ (++ represents 250 nM<IC50<=10 μM)”. Take `Nc1cc(NC(=O)c2cc(F)cc(C(F)(F)F)c2)c2c3c1CCN3C(=O)NC2c1cccc2ccccc12` (stereo not shown) [YL060]: the “PI3Kaα IC50” value was “+++ (+++ represents IC50>10 μM)”.

Broadly, the IC50 is the concentration that gives 50% inhibition. Lower therefore signals higher potency.
